This passage reports EC50 results from patent publication US20050234046A1 (Kalypsys, Inc., priority 2004, published 2005).

Holding throughout (assay): Transient transfection (transactivation) assay in CV-1 cells, GAL4-PPAR chimera, luciferase reporter
Common to all, as to assay type: cell-based

For experiment [1], the target named is T1, PPAR alpha (Homo sapiens, UniProt Q07869).
T1 construct: expressed in transfected cells; host or cells: CV-1 cells
T1 sequence (Q07869 239-466 limits assumed): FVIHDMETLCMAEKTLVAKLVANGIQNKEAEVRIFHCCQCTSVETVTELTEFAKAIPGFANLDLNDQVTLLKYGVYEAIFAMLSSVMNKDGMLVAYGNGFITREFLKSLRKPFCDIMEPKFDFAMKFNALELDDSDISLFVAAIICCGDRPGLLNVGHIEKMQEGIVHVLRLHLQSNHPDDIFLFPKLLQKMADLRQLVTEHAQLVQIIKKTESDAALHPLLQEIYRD
In outline: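 GAL4 DNA-binding domain fused to PPAR ligand binding domain, co-transfected into CV-1 cells with a luciferase reporter carrying four or five GAL4 sites. Replated cells in phenol-red free DME with 5% delipidated calf serum were treated with compound or 1% DMSO for 20-24 hours; luciferase read for EC50 and efficacy.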

For experiment [2], the target named is T2, PPAR delta (Homo sapiens, UniProt Q03181).
T2 construct: expressed in transfected cells; host or cells: CV-1 cells
T2 sequence (Q03181 211-439 limits assumed): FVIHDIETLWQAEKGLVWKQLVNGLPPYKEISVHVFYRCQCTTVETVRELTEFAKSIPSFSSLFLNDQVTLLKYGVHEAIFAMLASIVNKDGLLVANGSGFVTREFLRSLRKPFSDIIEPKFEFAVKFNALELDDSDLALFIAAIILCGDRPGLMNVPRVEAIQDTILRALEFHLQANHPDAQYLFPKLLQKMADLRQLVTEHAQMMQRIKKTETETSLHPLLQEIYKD

For experiment [3], the target named is T3, PPAR gamma (Homo sapiens, UniProt P37231).
T3 construct: expressed in transfected cells; host or cells: CV-1 cells
T3 sequence (P37231 238-503 limits assumed): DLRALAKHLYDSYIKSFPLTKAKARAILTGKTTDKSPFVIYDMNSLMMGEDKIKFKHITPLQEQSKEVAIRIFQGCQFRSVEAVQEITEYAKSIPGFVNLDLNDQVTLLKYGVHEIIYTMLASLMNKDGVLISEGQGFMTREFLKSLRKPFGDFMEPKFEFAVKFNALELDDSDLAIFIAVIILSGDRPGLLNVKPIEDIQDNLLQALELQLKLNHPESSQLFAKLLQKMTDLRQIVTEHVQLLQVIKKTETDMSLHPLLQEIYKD

With `Cc1cc(CC(=O)O)cc(S(=O)(=O)N2[C@@H](C)CN(c3ccc(C(F)(F)F)cn3)C[C@@H]2C)c1` [Example 195, {3-[2,6(S,S)-Dimethyl-4-(5-trifluoromethyl-pyridin-2-yl)-piperazine-1-sulfonyl]-5-methyl-phenyl}-acetic acid], the values for the EC50 in experiment [1], in experiment [2] and in experiment [3] were 5 to 100 µM, under 5 µM and 5 to 100 µM, respectively.

Take `Cc1cc(S(=O)(=O)N2CCN(c3ccc(C(F)(F)F)cn3)CC2)cc(CC(=O)O)c1Br` [Example 196, {2-Bromo-3-methyl-5-[4-(5-trifluoromethyl-pyridin-2-yl)-piperazine-1-sulfonyl]-phenyl}-acetic acid]: the 50% effective concentration (EC50) in experiment [1] was 5 to 100 µM; in experiment [2] it was under 5 µM; in experiment [3], under 5 µM.

In the case of `Cc1cc(S(=O)(=O)N2[C@H](C)CN(c3ccc(C(F)(F)F)cn3)C[C@@H]2C)cc(CC(=O)O)c1Br` [Example 197, {2-Bromo-5-[2,6-dimethyl-4-(5-trifluoromethyl-pyridin-2-yl)-piperazine-1-sulfonyl]-3-methyl-phenyl}-acetic acid], the results for the EC50 in experiment [1], in experiment [2] and in experiment [3] were over 100 µM, under 5 µM and 5 to 100 µM, respectively.

For the molecule `Cc1cc(S(=O)(=O)N2[C@H](C)CN(c3ccc(OC(F)(F)F)cc3)C[C@@H]2C)cc(CC(=O)O)c1Br` [Example 198, {2-Bromo-5-[2,6-dimethyl-4-(4-trifluoromethoxy-phenyl)-piperazine-1-sulfonyl]-3-methyl-phenyl}-acetic acid], the EC50 is 5 to 100 µM in experiment [1], under 5 µM in experiment [2] and 5 to 100 µM in experiment [3].

As for `O=C(O)Cc1cc(Br)cc(S(=O)(=O)N2CCN(c3ccc(C(F)(F)F)cn3)CC2)c1` [Example 199, {3-Bromo-5-[4-(5-trifluoromethyl-pyridin-2-yl)-piperazine-1-sulfonyl]-phenyl}acetic acid], the EC50 was 5 to 100 µM in experiment [1], under 5 µM in experiment [2] and 5 to 100 µM in experiment [3].

As for `C[C@@H]1CN(c2ccc(OC(F)(F)F)cc2)C[C@H](C)N1S(=O)(=O)c1cc(Br)cc(CC(=O)O)c1` [Example 200, {3-Bromo-5-[2,6-dimethyl-4-(4-trifluoromethoxy-phenyl)-piperazine-1-sulfonyl]-phenyl}-acetic acid], the figures for the 50% effective concentration (EC50) in experiment [1], in experiment [2] and in experiment [3] were 5 to 100 µM, under 5 µM and 5 to 100 µM, respectively.

Turning to `O=C(O)Cc1cc(Br)cc(S(=O)(=O)N2CCN(c3ccc(OC(F)(F)F)cc3)CC2)c1` [Example 201, {3-Bromo-5-[4-(4-trifluoromethoxy-phenyl)-piperazine-1-sulfonyl]-phenyl}-acetic acid], the EC50 in experiment [1] was 5 to 100 µM; in experiment [2], under 5 µM; in experiment [3], 5 to 100 µM.

For the molecule `O=C(O)Cc1cc(C(F)(F)F)cc(S(=O)(=O)N2CCN(c3ccc(C(F)(F)F)cc3)CC2)c1` [Example 202, {3-Trifluoromethyl-5-[4-(4-trifluoromethyl-phenyl)-piperazine-1-sulfonyl]-phenyl}-acetic acid], the EC50 is 5 to 100 µM in experiment [1], under 5 µM in experiment [2] and 5 to 100 µM in experiment [3].

`O=C(O)Cc1cc(C(F)(F)F)cc(S(=O)(=O)N2CCN(c3ccc(C(F)(F)F)cn3)CC2)c1` [Example 203, {3-Trifluoromethyl-5-[4-(5-trifluoromethyl-pyridin-2-yl)-piperazine-1-sulfonyl]-phenyl}-acetic acid]: the EC50 in experiment [1] is 5 to 100 µM; in experiment [2], under 5 µM; in experiment [3], 5 to 100 µM.

As for `C[C@@H]1CN(c2ccc(C(F)(F)F)cn2)C[C@H](C)N1S(=O)(=O)c1cc(CC(=O)O)cc(C(F)(F)F)c1` [Example 204, {3-[2,6-Dimethyl-4-(5-trifluoromethyl-pyridin-2-yl)-piperazine-1-sulfonyl]-5-trifluoromethyl-phenyl}-acetic acid], the EC50 in experiment [1] was over 100 µM; in experiment [2] it was under 5 µM; in experiment [3] it was over 100 µM.
